Each structure is given as a SMILES string. Structures can show the parent of a compound that is named as a salt.

For the assay, the target named is T1, BRD4 BD2 (Homo sapiens, UniProt O60885, Y97A).
T1 construct: BRD4 (1-477) (Y97A) and (Y390A); made in house; host or cells: E. coli (pET15b vector)
In words: TR-FRET binding assay, BRD4 BD2 (BD1-mutated protein). Particulars: read-out: pIC50 in the BRD4 BD2 assay (converted). How it is done:
Time Resolved Fluorescence Resonance Energy Transfer (TR-FRET) Assay Binding was assessed using a time resolved fluorescent resonance energy transfer binding assay. This utilises a 6 His purification tag at the N-terminal of the proteins as an epitope for an anti-6 His antibody labeled with Europium chelate (PerkinElmer AD0111) allowing binding of the Europium to the proteins which acts as the donor fluorophore. A small molecule, high affinity binder of the bromodomains BRD2, BRD3, BRD4 and BRDT has been labeled with Alexa Fluor647 (Reference Compound X) and this acts as the acceptor in the FRET pair.
In the absence of a competing compound, excitation of the Europium causes the donor to emit at λ618 nm which excites the Alexa labelled bromodomain binding compound leading to an increased energy transfer that is measurable at λ647 nM. In the presence of a sufficient concentration of a compound that can bind these proteins, the interaction is disrupted leading to a quantifiable drop in fluorescent resonance energy transfer.
The binding of the compounds of formula (I) to Bromodomains BRD2, BRD3, BRD4 and BRDT was assessed using mutated proteins to detect differential binding to either Binding Domain 1 (BD1) or Binding Domain 2 (BD2) on the bromodomain. These single residue mutations in the acetyl lysine binding pocket greatly lower the affinity of the fluoroligand (Reference Compound X) for the mutated domain (>1000 fold selective for the non-mutated domain). Therefore in the final assay conditions, binding of the fluoroligand to the mutated domain cannot be detected and subsequently the assay is suitable to determine the binding of compounds to the single non-mutated bromodomain.
Recombinant Human Bromodomains [(BRD2 (1-473) (Y113A) and (Y386A), BRD3 (1-435) (Y73A) and (Y348A) BRD4 (1-477) (Y97A) and (Y390A) and BRDT (1-397) (Y66A) and (Y309A)] were expressed in E. coli cells (in pET15b vector for BRD2/3/4 and in pET28a vector for BRDT) with a 6-His tag at the N-terminal. The His-tagged Bromodomain pellet was resuspended in 50 mM HEPES (pH7.5), 300 mM NaCl, 10 mM imidazole & 1 μl/ml protease inhibitor cocktail and extracted from the E. coli cells using sonication and purified using a nickel sepharose high performance column, the proteins were washed and then eluted with a linear gradient of 0-500 mM imidazole with buffer 50 mM HEPES (pH7.5), 150 mM NaCl, 500 mM imidazole, over 20 column volumes. Final purification was completed by Superdex 200 prep grade size exclusion column. Purified protein was stored at −80° C. in 20 mM HEPES pH 7.5 and 100 mM NaCl. Protein identity was confirmed by peptide mass fingerprinting and predicted molecular weight confirmed by mass spectrometry.
All assay components were dissolved in buffer composition of 50 mM HEPES pH7.4, 50 mM NaCl, 5% Glycerol, 1 mM DTT and 1 mM CHAPS. The final concentration of bromodomain proteins were 10 nM and the Alexa Fluor647 ligand was at Kd. These components were premixed and 5 μl of this reaction mixture was added to all wells containing 50 nl of various concentrations of test compound or DMSO vehicle (0.5% DMSO final) in Greiner 384 well black low volume microtitre plates and incubated in dark for 30 minutes at rt. 5 μl of detection mixture containing 1.5 nM final concentration anti-6His Europium chelate was added to all wells and a further dark incubation of at least 30 minutes was performed. Plates were then read on the Envision platereader, (λex=317 nm, donor λem=615 nm; acceptor λem=665 nm; Dichroic LANCE dual). Time resolved fluorescent intensity measurements were made at both emission wavelengths and the ratio of acceptor/donor was calculated and used for data analysis. All data was normalized to the mean of 16 high (inhibitor control—Example 11 of WO 2011/054846A1) and 16 low (DMSO) control wells on each plate. A four parameter curve fit of the following form was then applied: y=a+((b−a)/(1+(10^/10^)^d) […]
In general terms: Time-resolved FRET reads energy transfer from a long-lived donor to a nearby acceptor.
Regarding `CC(=O)N1c2ccc(N3CCC(C)C3)cc2[C@H](Nc2ccccc2)[C@@H](C)[C@@H]1C` (mixture of isomers) [Example 80, 1-((rac-2S,3R,4R)-2,3-dimethyl-6-(3-methylpyrrolidin-1-yl)-4-(phenylamino)-3,4-dihydroquinolin-1(2H)-yl)ethanone], the IC50 was 0.1 µM.

As for `CC(=O)N1c2ccc(N3CCCC3C)cc2[C@H](Nc2ccccc2)[C@@H](C)[C@@H]1C` (mixture of isomers) [Example 81, 1-((rac-2S,3R,4R)-2,3-dimethyl-6-(2-methylpyrrolidin-1-yl)-4-(phenylamino)-3,4-dihydroquinolin-1(2H)-yl)ethanone], the IC50 is 0.1 µM.

`CC(=O)N1c2ccc(C3=CCOCC3)cc2[C@H](Nc2cccc(C)n2)[C@@H](C)[C@@H]1C1CC1` (racemic) [Example 85, rac-1-((2S,3R,4R)-2-cyclopropyl-6-(3,6-dihydro-2H-pyran-4-yl)-3-methyl-4-((6-methylpyridin-2-yl)amino)-3,4-dihydroquinolin-1(2H)-yl)ethanone, formic acid salt]: the IC50 was 0.1 µM.

With `CC(=O)N1c2ccc(C3=CCNCC3)cc2[C@H](Nc2cccc(C)n2)[C@@H](C)[C@@H]1C1CC1` (racemic) [Example 87, rac-1-((2S,3R,4R)-2-cyclopropyl-3-methyl-4-((6-methylpyridin-2-yl)amino)-6-(1,2,3,6-tetrahydropyridin-4-yl)-3,4-dihydroquinolin-1(2H)-yl)ethanone], the IC50 is 0.1 µM.

As for `CC(=O)N1c2ccc(C3=CCOCC3)cc2[C@@H](Nc2ccccn2)[C@H](C)[C@H]1C1CC1` (racemic) [Example 92, rac-1-((2S,3R,4R)-2-cyclopropyl-6-(3,6-dihydro-2H-pyran-4-yl)-3-methyl-4-(pyridin-2-ylamino)-3,4-dihydroquinolin-1(2H)-yl)ethanone], the IC50 was 0.1 µM.

For `CC(=O)N1c2ccc(N3CCNCC3)cc2[C@H](Nc2ccccc2)[C@@H](C)[C@@H]1C1CC1` (racemic) [Example 94, rac-1-((2S,3R,4R)-2-cyclopropyl-3-methyl-4-(phenylamino)-6-(piperazin-1-yl)-3,4-dihydroquinolin-1(2H)-yl)ethanone, hydrochloride], the IC50 is 0.1 µM.

As to `CC(=O)N1c2ccc(N3CCNC(C)C3)nc2[C@H](Nc2ccccc2)[C@@H](C)[C@@H]1C1CC1` (mixture of isomers) [Example 107, 1-((rac-2S,3R,4R)-2-cyclopropyyl-3-methyl-6-(3-methylpiperazin-1-yl)-4-(phenylamino)-3,4-dihydro-1,5-naphthyridin-1(2H)-yl)ethanone], the IC50 was 1 to 100 µM.

Regarding `CC(=O)N1c2ccc(N3CCNCC3)nc2[C@H](Nc2ccccc2)[C@@H](C)[C@@H]1C1CC1` (racemic) [Example 108, rac-1-((2S,3R,4R)-2-cyclopropyl-3-methyl-4-(phenylamino)-6-(piperazin-1-yl)-3,4-dihydro-1,5-naphthyridin-1(2H)-yl)ethanone], the IC50 is 1 to 100 µM.

`CC(=O)N1c2ccc(N3CCC(N)CC3)nc2[C@H](Nc2ccccc2)[C@@H](C)[C@@H]1C1CC1` (racemic) [Example 109, rac-1-((2S,3R,4R)-6-(4-aminopiperidin-1-yl)-2-cyclopropyl-3-methyl-4-(phenylamino)-3,4-dihydro-1,5-naphthyridin-1(2H)-yl)ethanone]: the IC50 was 1 to 100 µM.

Consider `CC(=O)N1c2ccc(N3CCOCC3)nc2[C@H](Nc2ccccc2)[C@@H](C)[C@@H]1C1CC1` (racemic) [Example 110, rac-1-((2S,3R,4R)-2-cyclopropyl-3-methyl-6-morpholino-4-(phenylamino)-3,4-dihydro-1,5-naphthyridin-1(2H)-yl)ethanone], for which the IC50 is 1 to 100 µM.

As for `COc1ccc2c(n1)[C@H](Nc1cccc(C)n1)[C@@H](C)[C@H](C1CC1)N2C(C)=O` (racemic) [Example 111, rac-1-((2S,3R,4R)-2-cyclopropyl-6-methoxy-3-methyl-4-((6-methylpyridin-2-yl)amino)-3,4-dihydro-1,5-naphthyridin-1(2H)-yl)ethanone], the IC50 was 1 to 100 µM.

`CC(=O)N1c2ccc(O)nc2[C@H](Nc2cccc(C)n2)[C@@H](C)[C@@H]1C1CC1` (racemic) [Example 112, rac-1-((2S,3R,4R)-2-cyclopropyl-6-hydroxy-3-methyl-4-((6-methylpyridin-2-yl)amino)-3,4-dihydro-1,5-naphthyridin-1(2H)-yl)ethanone]: the IC50 is 1 to 100 µM.

For `CC(=O)N1c2cccnc2[C@H](Nc2cccc(C)n2)[C@@H](C)[C@@H]1C1CC1` (racemic) [Example 113, rac-1-((2S,3R,4R)-2-cyclopropyl-3-methyl-4-((6-methylpyridin-2-yl)amino)-3,4-dihydro-1,5-naphthyridin-1(2H)-yl)ethanone], the IC50 is 1 to 100 µM.

In the case of `CC(=O)N1c2cnccc2[C@H](Nc2ccccc2)[C@@H](C)[C@@H]1C` (racemic) [Example 115, rac-1-((2S,3R,4R)-2,3-dimethyl-4-(phenylamino)-3,4-dihydro-1,7-naphthyridin-1(2H)-yl)ethanone formate], the IC50 was 0.1 µM.

Turning to `CC(=O)N1c2ccccc2[C@H](Oc2ccccc2)[C@@H](C)[C@@H]1C1CC1` (racemic) [Example 119, rac-1-((2S,3S,4R)-2-cyclopropyl-3-methyl-4-phenoxy-3,4-dihydroquinolin-1(2H)-yl)ethanone], the IC50 is 0.1 µM.

Turning to `CC(=O)N1c2ccccc2[C@H](Nc2cccc(CN)c2)[C@@H](C)[C@@H]1C1CC1` (racemic) [Example 124, rac-1-((2S,3R,4R)-4-((3-(aminomethyl)phenyl)amino)-2-cyclopropyl-3-methyl-3,4-dihydroquinolin-1(2H)-yl)ethanone, hydrochloride], the IC50 is 0.1 µM.

For `CC(=O)N1c2ccccc2[C@H](Nc2ccc(C(=O)O)cc2)[C@@H](C)[C@@H]1C1CC1` (racemic) [Example 127, rac-4-(((2S,3R,4R)-1-acetyl-2-cyclopropyl-3-methyl-1,2,3,4-tetrahydroquinolin-4-yl)amino)benzoic acid], the IC50 is 1 to 100 µM.

On to `CNCCn1cc(-c2ccc3c(c2)[C@H](Nc2ccc(C#N)cc2)[C@@H](C)[C@H](C2CC2)N3C(C)=O)cn1` (racemic) [Example 134, rac-4-(((2S,3R,4R)-1-acetyl-2-cyclopropyl-3-methyl-6-(1-(2-(methylamino)ethyl)-1H-pyrazol-4-yl)-1,2,3,4-tetrahydroquinolin-4-yl)amino)benzonitrile], for which the IC50 was 0.1 µM.

As to `CC(=O)N1c2ccc(F)cc2[C@H](Nc2ccc(C#N)cc2)[C@@H](C)[C@@H]1C` (racemic) [Example 139, rac-4-(((2S,3R,4R)-1-acetyl-6-fluoro-2,3-dimethyl-1,2,3,4-tetrahydroquinolin-4-yl)amino)benzonitrile], the IC50 is 0.1 µM.

`CC(=O)N1c2ccc(F)cc2[C@H](Nc2ccc(F)cn2)[C@@H](C)[C@@H]1C` (racemic) [Example 141, rac-1-((2S,3R,4R)-6-fluoro-4-((5-fluoropyridin-2-yl)amino)-2,3-dimethyl-3,4-dihydroquinolin-1(2H)-yl)ethanone]: the IC50 was 0.1 µM.

In the case of `CC(=O)N1c2ccc(F)cc2[C@H](Nc2ccc(C#N)cn2)[C@@H](C)[C@@H]1C` (racemic) [Example 143, rac-6-(((2S,3R,4R)-1-acetyl-6-fluoro-2,3-dimethyl-1,2,3,4-tetrahydroquinolin-4-yl)amino)nicotinonitrile], the IC50 was 0.1 µM.

The record behind these values is patent US11478478B2, “2,3-disubstituted 1-acyl-4-amino-1,2,3,4-tetrahydroquinoline derivatives and their use as bromodomain inhibitors” (GLAXOSMITHKLINE INTELLECTUAL PROPERTY (NO.2) LIMITED, priority 2013, dated 2022).
